Patent US20100137277A1, “PYRIDINE COMPOUNDS AND THEIR USE AS P2Y12 ANTAGONISTS” (ASTRAZENECA AB, priority 2007, published 2010)

Biological target: T1, P2Y12 receptor (Homo sapiens, UniProt Q9H244)
T1 construct: expressed in transfected cells; host or cells: CHO cells (membranes)
Test: Functional inhibition of 2-Me-S-ADP induced P2Y12 signalling (35S-GTPγS binding, membranes from P2Y12 transfected CHO-cells)
Format: biochemical
Conditions: EC80 of agonist, value given at the end of each example
Experimental: Functional inhibition of—the P2Y12 receptor can be measured by in vitro assays using cell membranes from P2Y12 transfected CHO-cells, the methodology is indicated below.
Functional inhibition of 2-Me-S-ADP induced P2Y12 signalling: 5 μg of membranes were diluted in 200 μl of 200 mM NaCl, 1 mM MgCl2, 50 mM HEPES (pH 7.4), 0.01% BSA, 30 μg/ml saponin and 10 μM GDP. To this was added an EC80 concentration of agonist (2-methyl-thio-adenosine diphosphate), the required concentration of test compound and 0.1 μCi ^35S-GTPγS. The reaction was allowed to proceed at 30° C. for 45 min. Samples were then transferred on to GF/B filters using a cell harvester and washed with wash buffer (50 mM Tris (pH 7.4), 5 mM MgCl2, 50mM NaCl). Filters were then covered with scintilant and counted for the amount of ^35S-GTPγS retained by the filter. Maximum activity was that determined in the presence of the agonist and minimum activity in the absence of the agonist following subtraction of the value determined for non-specific activity. The effect of compounds at various concentrations was plotted according to the equation
y=A+((B−A)/(1+((C/x)̂D)))
and IC50 estimated where • A is the bottom plateau of the curve i.e. the final minimum y value • B is the top of the plateau of the curve i.e. the final maximum y value • C is the x value at the middle of the curve. This represents the log EC50 value when A+B=100 • D is the slope factor. • x is the original known x values. • Y is the original known y values.
Functional inhibition of 2-Me-S-ADP induced P2Y12 signalling: 5 μg of membranes were diluted in 200 μl of 200 mM NaCl, 1 mM MgCl2, 50 mM HEPES (pH 7.4), 0.01% BSA, 30 μg/ml saponin and 10 μM GDP. To this was added an EC80 concentration of agonist (2-methyl-thio-adenosine diphosphate), the required concentration of test compound and 0.1 μCi ^35S-GTPγS. The reaction was allowed to proceed at 30° C. for 45 min. Samples were then transferred on to GF/B filters using a cell harvester and washed with wash buffer (50 mM Tris (pH 7.4), 5 mM MgCl2, 50 mM NaCl). […]

T1 sequence (Q9H244 whole entry): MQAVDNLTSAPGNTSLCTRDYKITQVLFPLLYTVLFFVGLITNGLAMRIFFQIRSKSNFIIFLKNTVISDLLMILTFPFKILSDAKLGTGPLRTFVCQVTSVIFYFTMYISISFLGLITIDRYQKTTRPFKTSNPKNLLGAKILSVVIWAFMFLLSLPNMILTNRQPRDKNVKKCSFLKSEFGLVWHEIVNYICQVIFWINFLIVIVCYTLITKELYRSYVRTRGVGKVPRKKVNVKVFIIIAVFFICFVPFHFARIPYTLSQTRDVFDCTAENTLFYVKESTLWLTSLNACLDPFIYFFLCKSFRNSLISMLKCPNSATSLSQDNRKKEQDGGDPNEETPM

Row | IC50 [µM] | SMILES
1 | 0.015 | CCOC(=O)c1cc(C#N)c(N2CC(C(=O)NS(=O)(=O)Cc3ccccc3F)C2)nc1OC [Example 21]
2 | 0.134 | CCOC(=O)c1cc(C#N)c(N2CCC(C(=O)NS(=O)(=O)c3ccccc3)CC2)nc1OC [Example 7, Ethyl 5-cyano-2-methoxy-6-{4-[(phenylsulfonyl)carbamoyl]piperidin-1-yl}nicotinate]
3 | 0.089 | CCOC(=O)c1cc(C#N)c(N2CC(C(=O)NS(=O)(=O)Cc3ccccc3)C2)nc1COCc1ccccc1 [Example 35, Ethyl 2-[(benzyloxy)methyl]-6-{3-[(benzylsulfonyl)carbamoyl]azetidin-1-yl}-5-cyanonicotinate]
